Data on 41 compounds can be found in US20150030583A1, “Methods of Treating Serosal Cancer” (SLOAN KETTERING INSTITUTE FOR CANCER RESEARCH, priority 2011, published 2015).

Structures can show the parent of a compound that is named as a salt. Where two headings read alike, the source gives them in different places.

The assay concerns Ovcar3-GTL catenae. Briefly: Ovcar3-GTL catena drug sensitivity / proliferation screen (alamarBlue, 384-well). In general terms: The colour change of resazurin is a common sign of viable cells or microbes.
The mark [1] stands for this setting: ratio of IC50 day 6 to day 1, Ovcar3-GTL catenae.
Where [2] appears, read: read-out: IC50 (μM) Addition on Day 1; Ovcar3-GTL catenae; compound added one day after seeding (cells predominantly lacking a glycocalyx).
The mark [3] stands for this setting: read-out: IC50 (μM) Addition on Day 6; Ovcar3-GTL catenae; compound added six days after seeding (established or substantial glycocalyx).
[4] abbreviates: read-out: IC50 (μM) No coat, pathway-specific inhibitors; catena cells without glycocalyx coat.
[5] abbreviates: read-out: IC50 (μM) With coat, pathway-specific inhibitors; catena cells with glycocalyx coat.
Setting [6] is: 24 h, read-out: IC50 (μM) Addition on Day 1, Ovcar3-GTL catenae; compound added one day after seeding (cells predominantly lacking a glycocalyx).
The mark [7] stands for this setting: 144 h, read-out: IC50 (μM) Addition on Day 6, Ovcar3-GTL catenae; compound added six days after seeding (established or substantial glycocalyx).
Setting [8] is: increased resistance of catena cells with glycocalyx coat versus no coat.
The mark [9] stands for this setting: read-out: IC50 (μM) With coat; pathway-specific inhibitors; catena cells with glycocalyx coat.
[10] abbreviates: LOPAC 1280 HTS; compound at 0.2 μM.

For orientation: IC50 means the concentration that gives 50% inhibition.

For the compound `C/C(=C\c1csc(C)n1)[C@@H]1C[C@@H]2O[C@]2(C)CCC[C@H](C)[C@H](O)[C@@H](C)C(=O)C(C)(C)[C@@H](O)CC(=O)O1` [Epo-B], under setting [1], the “Increase in Resistance Day6/Day 1” value was 4,000 fold. Moreover, the IC50 is 0.025 µM under setting [2] and greater than 100 µM under setting [3].

Take `O=C(NOC[C@H](O)CO)c1ccc(F)c(F)c1Nc1ccc(I)cc1F` [PD0325901]: the 50% inhibitory concentration (IC50) was 0.2 µM (read-out: IC50 (μM) No coat) and greater than 25 µM (read-out: IC50 (μM) With coat).

Turning to `CS(=O)(=O)c1ccc(C(=O)Nc2ccc(Cl)c(-c3ccccn3)c2)c(Cl)c1` [GDC-0449 (Vismodegib), Vismodegib], the IC50 under setting [4] is greater than 25 µM and the IC50 under setting [5] is greater than 25 µM.

On to `CC(C)C[C@H](NC(=O)[C@H](Cc1ccccc1)NC(=O)c1cnccn1)B(O)O` [bortezomib], for which the IC50 amounted to 0.013 µM under setting [6] and 0.013 µM under setting [7].

Take `CC(=O)c1c(C)c2cnc(Nc3ccc(N4CCNCC4)cn3)nc2n(C2CCCC2)c1=O` [PD-0332991]: the IC50 turned out to be 0.6 µM under setting [6], 50 µM under setting [7], 13.4 µM under setting [4] and 13.4 µM under setting [5]. In addition, the “Increase in Resistance Day6/Day 1” value under setting [1] amounted to 83 fold.

In the case of `CCCCCCCCCCCCCCCCCCOP(=O)([O-])OC1CC[N+](C)(C)CC1` [Perifosine], under setting [8], the Fold resistance came out at 4 fold. The IC50 is 3.14 µM under setting [4] and 13.4 µM under setting [5].

Turning to `Clc1ccc(Nc2nnc(Cc3ccncc3)c3ccccc23)cc1` [Vatalanib], the IC50 under setting [4] was greater than 25 µM and the IC50 under setting [5] is greater than 25 µM.

For the compound `Cn1c(=O)n(-c2ccc(C(C)(C)C#N)cc2)c2c3cc(-c4cnc5ccccc5c4)ccc3ncc21` [BEZ235 (NVP-BEZ235)], the IC50 was 0.05 µM under setting [4] and greater than 25 µM under setting [5].

Under setting [8], `NC1(c2ccc(-c3nc4ccn5c(=O)[nH]nc5c4cc3-c3ccccc3)cc2)CCC1` [MK-2206] registered a Fold resistance of 4 fold. Moreover, the IC50 reads like this: under setting [4], 3.14 µM; under setting [5], 13.4 µM.

Consider `CCc1cc(Nc2nccc(-c3c(-c4ccc(OC)c(C(=O)Nc5c(F)cccc5F)c4)nc4ccccn34)n2)c(OC)cc1N1CCC(N2CCN(S(C)(=O)=O)CC2)CC1` [GSK1904529A], for which the IC50 was greater than 25 µM under setting [4] and greater than 25 µM under setting [9].

Turning to `N#CC(=C(/N)Sc1ccccc1N)/C(C#N)=C(\N)Sc1ccccc1N` [U0126], the IC50 (read-out: IC50 (μM) No coat) is 13.4 µM and the IC50 (read-out: IC50 (μM) With coat) is greater than 25 µM.

On to `CC1(C)CNc2cc(NC(=O)c3cccnc3NCc3ccncc3)ccc21` [Motesanib Diphosphate (AMG-706), Motesanib Diphosphate], for which the IC50 by setting is: under setting [4], greater than 25 µM; under setting [5], greater than 25 µM.

Regarding `OCCn1cc(-c2ccc3c(c2)CC/C3=N\O)c(-c2ccncc2)n1` [GDC-0879], the half-maximal inhibitory concentration (IC50) was greater than 25 µM under setting [4] and greater than 25 µM under setting [5].

Turning to `COc1cc([C@@H]2c3cc4c(cc3[C@@H](O[C@@H]3O[C@@H]5CO[C@@H](C)O[C@H]5[C@H](O)[C@H]3O)[C@H]3COC(=O)[C@H]23)OCO4)cc(OC)c1O` [etoposide], the IC50 came out at 0.4 µM under setting [6] and 50 µM under setting [7]. For the same compound, the “Increase in Resistance Day6/Day 1” value under setting [1] came to 125 fold.

As to `COc1cc2c(c(OC)c1OC)-c1ccc(OC)c(=O)cc1[C@@H](NC(C)=O)CC2` [colchicine], the “toxicity to catena cells with a glycocalyx coat” value (from here on “toxicity to catena cells”) under setting [10] is reported as “exert toxicity”.

`COc1ccc(CCN(C)CCCC(C#N)(c2ccc(OC)c(OC)c2)C(C)C)cc1OC` (stereo not shown) [verapamil]: the IC50 (24 h, read-out: IC50 (μM) Addition on Day 1) is greater than 100 µM and the IC50 (144 h, read-out: IC50 (μM) Addition on Day 6) is greater than 100 µM.

As for `C[C@@H](Oc1cc(-c2cnn(C3CCNCC3)c2)cnc1N)c1c(Cl)ccc(F)c1Cl` [PF-02341066, Crizotinib], the IC50 is, setting by setting: under setting [6], 0.8 µM; under setting [7], 25 µM; under setting [4], 0.78 µM; under setting [5], 13.4 µM. For the same compound, under setting [8], the Fold resistance came out at 16 fold. The “Increase in Resistance Day6/Day 1” value under setting [1] was 31 fold.

For `COc1cccc2c1C(=O)c1c(O)c3c(c(O)c1C2=O)C[C@@](O)(C(C)=O)C[C@@H]3O[C@H]1C[C@H](N)[C@H](O)[C@H](C)O1` [daunarubacin], the “Increase in Resistance Day6/Day 1” value under setting [1] is 133 fold. For the same compound, the IC50 is, setting by setting: under setting [2], 0.006 µM; under setting [3], 0.8 µM.

Take `Cn1cc(C2=C(c3ccc(Cl)cc3Cl)C(=O)NC2=O)c2ccccc21` [SB 216763]: the IC50 under setting [4] is greater than 25 µM and the half-maximal inhibitory concentration (IC50) under setting [5] was greater than 25 µM.

For the compound `O=c1cc(N2CCOCC2)oc2c(-c3ccccc3)cccc12` [LY294002], the IC50 was 25 µM under setting [6] and greater than 100 µM under setting [7]. For the same compound, the “Increase in Resistance Day6/Day 1” value under setting [1] stood at 4 fold.

Turning to `Cc1nc(Nc2ncc(C(=O)Nc3c(C)cccc3Cl)s2)cc(N2CCN(CCO)CC2)n1` [dasatinib], the IC50 under setting [6] was greater than 100 µM and the 50% inhibitory concentration (IC50) under setting [7] is greater than 100 µM.

As to `Cc1cc(Nc2cc(N3CCN(C)CC3)nc(Sc3ccc(NC(=O)C4CC4)cc3)n2)[nH]n1` [VX-680 (Tozasertib), Tozasertib], the IC50 is 0.05 µM under setting [4] and greater than 25 µM under setting [5].

`c1ccc2c(c1)[I+]c1ccccc1-2` [diphenyleneiodonium chloride]: the “toxicity to catena cells” value is “exert toxicity”.

`CNC(=O)c1cc(Oc2ccc(NC(=O)Nc3ccc(Cl)c(C(F)(F)F)c3)c(F)c2)ccn1` [BAY 73-4506 (Regorafenib), Regorafenib]: the IC50 stood at 13.4 µM under setting [4] and 13.4 µM under setting [5].

`Oc1cccc(-c2nc(N3CCOCC3)c3oc4ncccc4c3n2)c1` [PI-103]: the Fold resistance under setting [8] is 16 fold. Besides, the IC50 runs as follows: (read-out: IC50 (μM) No coat) 0.78 µM; (read-out: IC50 (μM) With coat) 13.4 µM.

In the case of `Cc1[nH]c(/C=C2\C(=O)Nc3ccc(S(=O)(=O)Cc4c(Cl)cccc4Cl)cc32)c(C)c1C(=O)N1CCC[C@@H]1CN1CCCC1` [PHA-665752], the Fold resistance under setting [8] amounted to 1 fold. In addition, the IC50 under setting [4] turned out to be 3.14 µM and the IC50 under setting [5] amounted to 3.14 µM.

Consider `CCN(CC)CCNC(=O)c1c(C)[nH]c(/C=C2\C(=O)Nc3ccc(F)cc32)c1C` [Sunitinib Malate (Sutent), Sunitinib Malate], for which the Fold resistance under setting [8] was 4 fold. Further, the IC50 amounted to 3.14 µM under setting [4] and 13.4 µM under setting [5].

Turning to `CO[C@H]1C[C@@H]2CC[C@@H](C)[C@@](O)(O2)C(=O)C(=O)N2CCCC[C@H]2C(=O)O[C@H]([C@H](C)C[C@@H]2CC[C@@H](O)[C@H](OC)C2)CC(=O)[C@H](C)/C=C(\C)[C@@H](O)[C@@H](OC)C(=O)[C@H](C)C[C@H](C)/C=C/C=C/C=C/1C` [rapamycin], the IC50 was 12 µM under setting [6] and 25 µM under setting [7]. Besides, the “Increase in Resistance Day6/Day 1” value under setting [1] amounted to 2 fold.

For `FC(F)c1nc2ccccc2n1-c1nc(N2CCOCC2)nc(N2CCOCC2)n1` [ZSTK474], the Fold resistance under setting [8] is given as greater than 8 fold. Also, the IC50 under setting [4] was 3.14 µM and the IC50 under setting [5] is greater than 25 µM.

As to `C/C1=C/C[C@@H](/C(C)=C/c2csc(C)n2)OC(=O)C[C@H](O)C(C)(C)C(=O)[C@H](C)[C@@H](O)[C@@H](C)CCC1` [dEpoB], the “Increase in Resistance Day6/Day 1” value under setting [1] is given as 250,000 fold. Moreover, the half-inhibitory concentration (IC50) reads like this: under setting [2], 0.0004 µM; under setting [3], greater than 100 µM.

With `Cc1ccc(Nc2nccc(N(C)c3ccc4c(C)n(C)nc4c3)n2)cc1S(N)(=O)=O` [Pazopanib Hydrochloride], the IC50 under setting [4] was greater than 25 µM and the IC50 under setting [5] was greater than 25 µM.

Consider `Cc1[nH]c2ccccc2c1CCNCc1ccc(/C=C/C(=O)NO)cc1` [LBH-589 (Panobinostat), Panobinostat], for which the Fold resistance under setting [8] was determined as 4 fold. Also, the IC50 came to 0.01 µM under setting [4] and 0.05 µM under setting [9].

With `C[C@H]1CCC/C=C/[C@@H]2C[C@H](O)C[C@H]2[C@H](O)/C=C/C(=O)O1` [brefeldin A], the “toxicity to catena cells” value under setting [10] is “exert toxicity”.

With `CNC(=O)c1cc(Oc2ccc(NC(=O)Nc3ccc(Cl)c(C(F)(F)F)c3)cc2)ccn1` [Sorafenib Tosylate (Bay 43-9006), Sorafenib Tosylate], the IC50 under setting [4] amounted to 13.4 µM and the IC50 under setting [5] worked out at 13.4 µM.

In the case of `Cc1ccc(C(=O)Nc2ccc(CN3CCN(C)CC3)c(C(F)(F)F)c2)cc1C#Cc1cnc2cccnn12` [AP24534 (Ponatinib), Ponatinib], under setting [8], the Fold resistance is 16 fold. The half-inhibitory concentration (IC50) was 0.78 µM (read-out: IC50 (μM) No coat) and 13.4 µM (read-out: IC50 (μM) With coat).

Compound `Cn1cc(-c2ccc3nnc(Sc4ccc5ncccc5c4)n3n2)cn1` [SGX-523] registered a Fold resistance under setting [8] greater than 8 fold. In addition, the IC50 under setting [4] turned out to be 3.14 µM and the IC50 under setting [5] is greater than 25 µM.

As for `CN1CCN(c2ccc3nc(-c4c(N)c5c(F)cccc5[nH]c4=O)[nH]c3c2)CC1` [CHIR-258 (Dovitinib), Dovitinib], the Fold resistance under setting [8] is 4 fold. Also, the IC50 reads like this: under setting [4], 3.14 µM; under setting [5], 13.4 µM.

For `C[C@]1(c2nc3c(C(N)=O)cccc3[nH]2)CCCN1` [ABT-888 (Veliparib), Veliparib], the IC50 under setting [4] amounted to 13.4 µM and the half-maximal inhibitory concentration (IC50) under setting [5] is greater than 25 µM.

Regarding `COc1cc2c(N3CCN(C(=O)Nc4ccc(OC(C)C)cc4)CC3)ncnc2cc1OCCCN1CCCCC1` [Tandutinib (MLN518), Tandutinib], the IC50 amounted to 13.4 µM under setting [4] and 13.4 µM under setting [5].

As for `CS(=O)(=O)N1CCN(Cc2cc3nc(-c4cccc5[nH]ncc45)nc(N4CCOCC4)c3s2)CC1` [GDC-0941], the Fold resistance under setting [8] is given as greater than 8 fold. Also, the IC50 under setting [4] is 3.14 µM and the IC50 under setting [5] was greater than 25 µM.

Turning to `CC[C@@H]1C(=O)N(C)c2cnc(Nc3ccc(C(=O)NC4CCN(C)CC4)cc3OC)nc2N1C1CCCC1` [BI 2536], the 50% inhibitory concentration (IC50) was less than 0.001 µM (read-out: IC50 (μM) No coat) and 13.4 µM (read-out: IC50 (μM) With coat).
